Tested on: T1, BK channel (large-conductance Ca2+-activated K+ channel) of cricket oviduct myocytes
T1 construct: gene slo; native channel in isolated adult female lateral oviduct myocytes; single-channel patch clamp; not molecularly identified; homotetramer expected, auxiliary subunits unknown
Assay: cell-attached single-channel patch clamp, current amplitude, pipette backfill
Format: cell-based, Gryllus bimaculatus
Details: extracellular side; open-channel block; Hill coefficient 1.0; pipette solution 140 mM KCl, 1.6 mM CaCl2, pH 7.4; 22–27°C; counterion not given
Text: cell-attached single-channel patch clamp, current amplitude, pipette backfill on BK channel (large-conductance Ca2+-activated K+ channel) of cricket oviduct myocytes | inhibitory effect on the current amplitude of a single BK channel with an IC50 value

CC[N+](CC)(CC)CC [TEA, tetraethylammonium]
IC50: 319 ± 68.8 µM
